Measured values: patent publication US20110009335A1, “Anticancer Treatments” (priority 2008, published 2011)
Starred links: 1 amine or outer side, 2 acyl side, 3 side chain; linkers in the order of their positions; H or OH if unused. Positions of bridges follow the written chain, without caps; N, C: chain ends. Non-standard residues stand in square brackets, D forms with d. Residues, ends and D or L forms follow the SMILES beside them. *: point of attachment. X1 = CC[C@H](C)[C@@H](N[*:1])[C@@H](O)CC(=O)O[C@H](C(=O)[C@H](C)C(=O)[*:2])C(C)C; NMeY = CN[C@@H](Cc1ccc(O)cc1)C(=O)O; dNMeL = CN[C@H](CC(C)C)C(=O)O; Pyruvoyl = CC(=O)C(=O)*

Legend:
[1] = tested on: LOX-IMVI human melanoma xenograft; assay: Aplidine with sorafenib, LOX-IMVI xenograft in athymic nude mice (Example 7); type: in vivo; conditions: for antitumor activity as single agent (monotherapy): doses tested; for % Inhibition G4: sorafenib 30 mg/kg/day; for % Inhibition G3: sorafenib 60 mg/kg/day; for % Inhibition G2: aplidine 0.06 mg/kg/day
From the text: Female athymic nude mice (Harlan Sprague Dawley, Madison, Wis.) were utilized for all experiments. Mice were implanted with a tumor fragment when mice were 6-8 weeks of age. Animals were housed in ventilated rack caging with food and water ad libitum. The mice were acclimated for at least 5 days prior to tumor implantation.
The tumor model used in this study was LOX-IMVI, which is a human melanoma cell line obtained from the Department of Developmental Therapeutics, National Cancer Institute (NCI). Animals were implanted subcutaneously (SC) on the right flank, using a 13 gauge trocar, with 2 mm^3 of tissue tumor fragments of LOX-IMVI, from an in vivo transplantable line passage 1, using sterile Earle's Balanced Salt solution as a wetting agent.
Tumor measurements were determined as disclosed in Example 1. When tumor growth was within an average size range of 130±44 mg (mean±SD), mice were randomized into the treatment and control groups based on tumor weight by using LabCat® In Life module V 8.0 SP1 tumor tracking and measurement software.
The treatment of LOX-IMVI-tumor-bearing mice was initiated on DPI (Day Post Implantation) 11. Body weights were recorded on treatment days and when tumor sizes were measured. In those days wherein the two drugs were administered the same day, the combination therapy groups were treated by co-administering the two drugs at the same time, with no attempt to sequence the treatments.
Aplidine was provided in the form of vials of lyophilized aplidine powder which was reconstituted in Cremophor EL/ethanol/water (CEW) 15/15/70 to a concentration of 0.5 mg/ml. The aplidine solution in CEW was diluted in 0.9% Saline to the dosing formulation concentrations, being the final proportion of CEW of 0.18/0.18/0.84.
(§1) Tumor size measurements were recorded twice weekly from the treatment initiation until the termination of the study.
Mean, standard deviation and standard error of the mean were determined for tumor volume for all animal groups at all assessments. Student's t test was performed on tumor volumes at each measurement day, including at the end of the study, to determine whether there were any statistically significant differences between combination treatment groups and single monotherapy treatment groups.
The definition and criteria for the evaluation of potentiation and the degree of additivity for the combination therapy were the same as those disclose in Example 1.

[2] = tested on: CAKI-1 human renal tumor xenograft; assay: Aplidine with sunitinib, CAKI-1 xenograft in athymic nude mice (Example 2); type: in vivo; conditions: doses and schedules tested
Protocol: (§2) Female athymic nude mice (Harlan Sprague Dawley, Madison, Wis.) were utilized for all experiments. Mice were implanted with tumor fragments or a cell suspension when mice were 5 weeks of age. Animals were housed in ventilated rack caging, 5 mice per cage, with food and water ad libitum. The mice were acclimated for 1 week prior to being implanted with tumor fragments or cell suspensions.
Cells from in vitro passage 4-20 were implanted SC into study mice: 5×10^6 cells/mouse in 0.2 ml 50% Matrigel/50% medium without antibiotics or serum, using a 23 G needle and 1 cc syringe. Bacterial cultures were performed on aliquots of the cells prepared for implantation.
(§3) Tumor measurements were determined as disclosed in Example 1.
Body weights were recorded on treatment days and when tumor sizes were measured. In those days wherein the two drugs were administered the same day, the combination therapy groups were treated by co-administering the two drugs at the same time, with no attempt to sequence the treatments. […]
as §1
(§4) Mean, standard deviation and standard error of the mean were determined for tumor volume for all animal groups at all assessments. […]

[3] = tested on: MRI-H-121 human renal tumor xenograft; assay: Aplidine with sunitinib, MRI-H-121 xenograft in athymic nude mice (Example 2); type: in vivo; conditions: doses and schedules tested
Protocol: as §2, §3
(§5) Body weights were recorded on treatment days and when tumor sizes were measured. In those days wherein the two drugs were administered the same day, the combination therapy groups were treated by co-administering the two drugs at the same time, with no attempt to sequence the treatments.
(§6) Aplidine was provided in the form of vials of lyophilized aplidine powder which was reconstituted in Cremophor EL/ethanol/water (CEW) 15/15/70 to a concentration of 0.5 mg/ml. The aplidine solution in CEW was diluted in 0.9% Saline to the dosing formulation concentrations, being the final proportion of CEW of 0.18/0.18/0.84. […]
as §1, §4

[4] = tested on: A498 human renal tumor xenograft; assay: Aplidine with sunitinib, A498 xenograft in athymic nude mice (Example 2); type: in vivo; conditions: doses tested; sunitinib 40 mg/kg
Protocol: as §2, §3, §5, §6, §1, §4

[5] = tested on: AML and ALL samples from pediatric patients; conditions: de novo or relapsed ALL and AML; cited from earlier work
[6] = tested on: ALL-MOLT4 cells; conditions: mechanistic studies; cited from earlier work
[7] = G2: aplidine 0.060 mg/kg/day IP

CNC(=O)c1cc(Oc2ccc(NC(=O)Nc3ccc(Cl)c(C(F)(F)F)c3)cc2)ccn1 [sorafenib]
% T/C on day 11 ([1]; G3: sorafenib 60 mg/kg/day PO): 98.6%
% T/C on day 14 ([1]; G3: sorafenib 60 mg/kg/day PO): 101.2%
% T/C on day 18 ([1]; G3: sorafenib 60 mg/kg/day PO): 77.7%
% T/C on day 20 ([1]; G3: sorafenib 60 mg/kg/day PO): 71.7%
% T/C on day 22 ([1]; G3: sorafenib 60 mg/kg/day PO): 64.8%
% T/C on day 25 ([1]; G3: sorafenib 60 mg/kg/day PO): 73.3%
% T/C on day 14 ([1]; G4: sorafenib 30 mg/kg/day PO): 96.9%
% T/C on day 18 ([1]; G4: sorafenib 30 mg/kg/day PO): 77.4%
% T/C on day 20 ([1]; G4: sorafenib 30 mg/kg/day PO): 75.9%
% T/C on day 22 ([1]; G4: sorafenib 30 mg/kg/day PO): 77.3%
% T/C on day 25 ([1]; G4: sorafenib 30 mg/kg/day PO): 93.4%
antitumor activity as single agent (monotherapy) [1]: inactive
% Inhibition G4 ([1]; day 11): −2.1%
% Inhibition G4 ([1]; day 14): 3.1%
% Inhibition G4 ([1]; day 18): 22.6%
% Inhibition G4 ([1]; day 20): 24.1%
% Inhibition G4 ([1]; day 22): 22.7%
% Inhibition G4 ([1]; day 25): 6.6%
% Inhibition G3 ([1]; day 11): 1.4%
% Inhibition G3 ([1]; day 14): −1.2%
% Inhibition G3 ([1]; day 18): 22.3%
% Inhibition G3 ([1]; day 20): 28.3%
% Inhibition G3 ([1]; day 22): 35.2%
% Inhibition G3 ([1]; day 25): 26.7%

CC[C@H](C)[C@H]1NC(=O)[C@@H](NC(=O)[C@@H](CC(C)C)N(C)C(=O)[C@@H]2CCCN2C(=O)C(C)=O)[C@@H](C)OC(=O)[C@H](Cc2ccc(OC)cc2)N(C)C(=O)[C@@H]2CCCN2C(=O)[C@H](CC(C)C)NC(=O)[C@@H](C)C(=O)[C@H](C(C)C)OC(=O)C[C@@H]1O [aplidine, dehydrodidemnin B] (Pyruvoyl-P[dNMeL]T[X1]LP[NMeY](Me); ester 3-C)
antitumor activity as single agent (monotherapy) [2]: inactive
antitumor activity as single agent (monotherapy) [3]: refractory
antitumor activity as single agent (monotherapy) [4]: no effect
% T/C on day 11 [1, 7]: 102.9%
% T/C on day 14 [1, 7]: 82.9%
% T/C on day 18 [1, 7]: 79.3%
% T/C on day 20 [1, 7]: 98.5%
% T/C on day 22 [1, 7]: 102.0%
% T/C on day 25 [1, 7]: 105.4%
% Inhibition G2 ([1]; day 11): −2.9%
% Inhibition G2 ([1]; day 14): 17.1%
% Inhibition G2 ([1]; day 18): 20.7%
% Inhibition G2 ([1]; day 20): 1.5%
% Inhibition G2 ([1]; day 22): −2.0%
% Inhibition G2 ([1]; day 25): −5.4%
antitumor activity as single agent (monotherapy) [1]: inactive
concentration with in vitro cytotoxic activity [5]: 5 nM
VEGF secretion [6]: block VEGF secretion
